# From PubChem BioAssay (NCI)
# Values joined by “and” are separate entries in the source; they are usually repeats but may differ in a detail not shown here. Equal entries are not always repeated.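 Tested at 5 concentrations; 48 h exposure; 96-well plates; endpoints linearly interpolated, else capped at highest concentration. Abbreviation: GI50, concentration required for 50% inhibition of growth. At the TGI there is no net growth.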
# What was measured:
# Experiment in all cases: DTP human tumour cell line panel, 48 h
# A498 renal = tested on: A498 renal
# BT-549 breast = tested on: BT-549 breast
# HT29 colon = tested on: HT29 colon
# MOLT-4 leukemia = tested on: MOLT-4 leukemia
# OVCAR-3 ovarian = tested on: OVCAR-3 ovarian
# OVCAR-5 ovarian = tested on: OVCAR-5 ovarian
# RXF 393 renal = tested on: RXF 393 renal
# SN12C renal = tested on: SN12C renal
# SR leukemia = tested on: SR leukemia
# ACHN renal = tested on: ACHN renal
# TK-10 renal = tested on: TK-10 renal
SMILES,TGI (A498 renal),TGI (BT-549 breast) [µM],TGI (HT29 colon),TGI (MOLT-4 leukemia),TGI (OVCAR-3 ovarian),TGI (OVCAR-5 ovarian),TGI (RXF 393 renal),TGI (SN12C renal),TGI (SR leukemia) [µM],TGI (ACHN renal) [µM],TGI (TK-10 renal) [µM],GI50 (A498 renal) [µM],GI50 (HT29 colon) [µM],GI50 (MOLT-4 leukemia) [µM],GI50 (OVCAR-3 ovarian),GI50 (OVCAR-5 ovarian) [µM],GI50 (SN12C renal) [µM]
c1ccc(N=C2SC3=Nc4cccc5cccc(c45)N3C2=Nc2ccccc2)cc1,> 100 µM,> 100,> 100 µM,> 100 µM,> 100 µM,> 100 µM,> 100 µM,> 100 µM,> 100,,,,,,,,
O=C(CCC(=O)c1ccc(Cl)cc1)NO,> 100 µM,> 100,> 100 µM,> 100 µM,> 100 µM,> 100 µM,> 100 µM,> 100 µM,> 100,> 100,> 100,,,,,,
CCOC(=O)Nn1c(C)nnc1-c1ccccc1,> 100 µM,> 100,> 100 µM,> 100 µM,> 100 µM,> 100 µM,> 100 µM,> 100 µM,> 100,> 100,> 100,,,,,,
CCOc1cc2c(cc1O)/C(=N\OC)C[C@@H]1[C@@H]2CC[C@]2(C)[C@@H](O)CC[C@@H]12,0.944 µM,40.9,15.3 µM,26.5 µM,2.29 µM,> 100 µM,,48.1 µM,0.0585,> 100,> 100,,,,,,
COc1ccc(C2c3cc4c(cc3OC(NNS(=O)(=O)c3ccc(C)cc3)C2C)OCO4)cc1 (centres undefined),> 100 µM,> 100,> 100 µM,> 100 µM,> 100 µM,> 100 µM,> 100 µM,> 100 µM,69.7,> 100,> 100,,,,,,
CNC(=O)OCC1=C(COC(=O)NC)C(C)N(c2ccc(OC)cc2)C1 (centres undefined),1.74 µM,> 100,> 100 µM,> 100 µM,> 100 µM,> 100 µM,> 100 µM,> 100 µM,93.8,> 100,73,,,,,,
COc1ccc(C(OCC2OC(n3cc(C)c(=O)[nH]c3=O)CC2n2cc(Cn3cc(I)c(=O)[nH]c3=O)nn2)(c2ccccc2)c2ccccc2)cc1 (centres undefined),> 100 µM,> 100,> 100 µM,> 100 µM,> 100 µM,> 100 µM,> 100 µM,> 100 µM,> 100,> 100,> 100,,,,,,
COc1cc(/C=C/C(=N\NS(=O)(=O)c2ccc(C)cc2)c2sc(NNC(C)=O)nc2C)ccc1O,> 100 µM,> 100,> 100 µM,> 100 µM,> 100 µM,> 100 µM,> 100 µM,> 100 µM,> 100,> 100,> 100,,,,,,
Cc1ccccc1-n1c(=O)c2ncn(CCCl)c2n(-c2ccccc2C)c1=S,> 100 µM,> 100,> 100 µM,> 100 µM,> 100 µM,> 100 µM,> 100 µM,> 100 µM,> 100,> 100,> 100,,,,,,
Cc1c2cnccc2c(C)c2c1c1ccccc1n2CCCN,1.62 µM and 1.15 µM,2.85,1.01 µM and 0.292 µM,0.472 µM and 0.217 µM,1.84 µM and 0.833 µM,1.71 µM and 0.874 µM,0.799 µM and 0.888 µM,1.36 µM and 1.1 µM,0.349,0.893,1.83,0.468,0.0277,< 0.0178,0.721 µM and 0.251 µM,0.196,0.25
Oc1ccc(-c2nc(-c3cccnc3)c(-c3ccc(F)cc3)[nH]2)cc1,,32.6,32.5 µM,33.2 µM,31.1 µM,68 µM,33.9 µM,54.6 µM,85,58.5,36.2,,,,,,
CC(C)CC(=O)OC[n+]1ccc(-c2c(COC(=O)NC(C)C)c(COC(=O)NC(C)C)c3n2CCC3)cc1,> 100 µM,> 100,> 100 µM,> 100 µM,> 100 µM,> 100 µM,> 100 µM,> 100 µM,> 100,> 100,> 100,,,,,,
O=[N+]([O-])C(=C1NCCN1)/C(Cl)=C(\Cl)Br,> 63.4 µM,> 96,> 59 µM,65.7 µM,38.7 µM,> 100 µM,39.1 µM,> 100 µM,55.4,> 100,> 100,,,,,,
O=C1OCC(O)=C1C(c1ccc(Cl)cc1)c1cc2c(cc1O)OCO2 (centres undefined),> 100 µM,> 100,> 100 µM,> 100 µM,> 100 µM,> 100 µM,> 100 µM,> 100 µM,> 100,> 100,> 100,,,,,,
O=C1/C(=C/c2ccc(O)cc2)CC/C1=C\c1ccc(O)cc1,> 100 µM,> 100,> 100 µM,> 52.8 µM,> 100 µM,> 100 µM,> 100 µM,> 100 µM,> 100,> 100,> 100,,,,,,
Nc1cccc2cc(Cl)cnc12,> 100 µM,> 100,> 100 µM,> 100 µM,> 100 µM,> 100 µM,> 100 µM,> 100 µM,> 100,> 100,> 100,,,,,,
COc1c(C)c(C/C=C(\C)CCCCO[Si](c2ccccc2)(c2ccccc2)C(C)(C)C)c(OC)c(OC)c1OC,> 100 µM,> 46.4,> 46.4 µM,> 46.4 µM,> 46.4 µM,> 46.4 µM,> 100 µM,> 46.3 µM,> 46.4,25.1,> 31.6,,,,,,
C[C@@]12C[C@@H](c3ccccc3O1)N1CCCCSC1=N2,> 100 µM,> 100,> 100 µM,> 100 µM,> 100 µM,> 100 µM,> 100 µM,> 100 µM,> 100,> 100,> 100,,,,,,

SMILES,TGI (A498 renal),TGI (BT-549 breast) [µM],TGI (HT29 colon),TGI (MOLT-4 leukemia),TGI (OVCAR-3 ovarian),TGI (OVCAR-5 ovarian),TGI (RXF 393 renal),TGI (SN12C renal),TGI (SR leukemia) [µM],TGI (ACHN renal) [µM],TGI (TK-10 renal) [µM],GI50 (A498 renal) [µM],GI50 (HT29 colon) [µM],GI50 (MOLT-4 leukemia) [µM],GI50 (OVCAR-3 ovarian),GI50 (OVCAR-5 ovarian) [µM],GI50 (SN12C renal) [µM]
CC(C)c1ccc(/C=C2/C=C(c3ccc4ccccc4c3)OC2=O)cc1,> 100 µM,> 100,> 100 µM,56.8 µM,> 100 µM,> 100 µM,> 100 µM,> 100 µM,> 52.4,> 100,> 100,,,,,,
COc1ccc(CNc2nc(NCc3ccc(OC)c(OC)c3)nc(NC3CCCCC3)n2)cc1,,> 100,> 100 µM,> 100 µM,> 100 µM,> 100 µM,6.22 µM,> 100 µM,> 100,> 100,> 100,,,,,,
COC(=O)c1cc2c(n1S(=O)(=O)c1ccc(C)cc1)C(=O)C(=O)c1[nH]cc(C(=O)OCc3ccccc3)c1-2,3.26 µM,0.334,1.15 µM,0.944 µM,0.0913 µM,1.02 µM,0.824 µM,0.241 µM,0.802,0.682,1.51,,,,,,
N#CC1=C(N)N(c2ccccc2)C(c2ccco2)C1(C#N)C#N (centres undefined),49.1 µM,37.4,37.1 µM,71 µM,56.7 µM,48.4 µM,37.1 µM,> 100 µM,51.1,32,31.5,,,,,,
N=c1n(C(=O)N2CCCC2)c2cc(Cl)ccc2n1C1=NCCN1,> 100 µM,> 100,> 100 µM,> 100 µM,> 100 µM,> 100 µM,> 100 µM,> 100 µM,> 100,> 100,> 100,,,,,,
Cc1cc(N(CCC#N)CCC#N)ccc1/C(N=Nc1ccc(Cl)cc1)=N\NC(=O)c1ccccc1,58.5 µM,> 100,47.6 µM,> 100 µM,> 100 µM,> 100 µM,> 100 µM,> 100 µM,> 100,> 100,> 100,,,,,,
CCOC(=O)c1c2ccccc2n2c(N)c(C(N)=O)nnc12,71 µM,89.9,> 100 µM,> 100 µM,> 100 µM,> 100 µM,41.6 µM,> 100 µM,> 100,26.6,40.5,,,,,,
C=C1c2nc3ccccc3n2C=C(c2ccccc2)N1c1ccc([N+](=O)[O-])cc1,42 µM,46.4,> 61.1 µM,> 100 µM,60.2 µM,40.7 µM,16 µM,> 95.2 µM,> 70,12.8,22.1,,,,,,
COc1ccc(/C=C2\CCC(C)C3=C2NC(=S)NC3c2ccc(OC)c(OC)c2)cc1OC (centres undefined),> 31.6 µM,26.2,> 100 µM,25.3 µM,> 31.6 µM,> 31.6 µM,,> 31.6 µM,39.3,> 31.6,> 31.6,,,,,,
CCC[C@@H](O)C[C@@H]1CCC[C@H](C[C@@H](O)CC)N1C,> 100 µM,> 100,> 100 µM,> 100 µM,> 100 µM,> 100 µM,,> 100 µM,> 100,> 100,> 100,,,,,,
C(/c1ccco1)=c1/nc(-c2ccccc2)n2c1nc1ccccc12,> 100 µM,94.4,> 100 µM,33.5 µM,> 100 µM,> 100 µM,> 100 µM,> 100 µM,43,> 100,> 100,,,,,,
O=c1[nH]cc(N=Cc2cc(Cl)cc(Cl)c2O)c(=O)[nH]1,> 100 µM,94.9,60.8 µM,69.7 µM,47.1 µM,> 100 µM,> 100 µM,> 100 µM,57.1,76.1,> 100,,,,,,
C=C(Br)C(C)(Cl)CCC(Br)C(C)(C)Cl (centres undefined),> 100 µM,> 100,> 100 µM,> 100 µM,35.6 µM,> 100 µM,65.1 µM,> 100 µM,> 100,75,> 100,,,,,,
CN1CCN([C@H]2C[C@H]3[C@@H]4CC=C5C[C@@H](O)CC[C@]5(C)[C@H]4CC[C@]3(C)C2=O)CC1,> 100 µM,> 100,> 100 µM,> 100 µM,> 100 µM,> 100 µM,> 100 µM,> 100 µM,70.1,> 100,> 100,,,,,,
O=C1CCC(=O)N1n1c(Cc2ccccc2)n[nH]c1=O,> 100 µM,> 100,> 100 µM,> 100 µM,> 100 µM,> 100 µM,> 100 µM,> 100 µM,> 100,> 100,> 100,,,,,,
Clc1cc(OC2C3CC4CC(C3)CC2C4)nc(Cl)n1 (centres undefined),39.6 µM,52.4,30.5 µM,34.8 µM,35.2 µM,44.2 µM,27.4 µM,31 µM,11.7,32.8,> 100,,,,,,
Cc1cccc(/C=N/NC(=S)Nc2ccccc2)n1,67 µM,75,> 100 µM,> 100 µM,13.6 µM,> 100 µM,28.1 µM,12.3 µM,> 100,13.7,> 95.3,,,,,,
